According to ChEMBL document CHEMBL1201862, “PubChem BioAssay data set” (2004):
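A five-concentration, 48-hour dose response in 96-well plates underlies each endpoint, interpolated linearly between surrounding concentrations. At the GI50, growth is halved.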 Active and inactive are the calls of the source. Cut-off read from the data, not from the text of the source: active = GI50 up to about 1.1 µM and inactive = higher.

Legend:
Assay in all cases: NCI tumour cell line growth inhibition, 48 h
HCC 2998 = system: HCC 2998
OVCAR-5 = system: OVCAR-5
RPMI-8226 = system: RPMI-8226
PC-3 = system: PC-3
OVCAR-4 = system: OVCAR-4
SNB-75 = system: SNB-75
HOP-62 = system: HOP-62
HL-60 = system: HL-60
SN12C = system: SN12C
DU-145 = system: DU-145
SK-MEL-28 = system: SK-MEL-28
BT-549 = system: BT-549
CCRF-CEM = system: CCRF-CEM
786-0 = system: 786-0
HT-29 = system: HT-29
NCI-H23 = system: NCI-H23
K562 = system: K562
SF-539 = system: SF-539
SK-MEL-2 = system: SK-MEL-2
SR = system: SR

| SMILES | GI50 (HCC 2998) | GI50 (OVCAR-5) | GI50 (RPMI-8226) | GI50 (PC-3) | GI50 (OVCAR-4) | GI50 (SNB-75) | GI50 (HOP-62) | GI50 (HL-60) | GI50 (SN12C) | GI50 (DU-145) | GI50 (SK-MEL-28) | GI50 (BT-549) | GI50 (CCRF-CEM) | GI50 (786-0) | GI50 (HT-29) | GI50 (NCI-H23) | GI50 (K562) | GI50 (SF-539) | GI50 (SK-MEL-2) | GI50 (SR) |
| --- | --- | --- | --- | --- | --- | --- | --- | --- | --- | --- | --- | --- | --- | --- | --- | --- | --- | --- | --- | --- |
| Cc1cc(O)c(C(C)C)cc1CN1CCCCC1 | > 100 µM (inactive) | > 100 µM (inactive) | > 100 µM (inactive) | > 100 µM (inactive) | > 100 µM (inactive) | > 100 µM (inactive) | > 100 µM (inactive) | > 100 µM (inactive) | > 100 µM (inactive) | > 100 µM (inactive) | > 100 µM (inactive) | > 100 µM (inactive) | > 100 µM (inactive) | > 100 µM (inactive) | > 100 µM (inactive) | > 100 µM (inactive) | > 100 µM (inactive) | > 100 µM (inactive) | – | – |
| Cc1cc(C)nc(SCC(=O)OC2CC(C)CCC2C(C)C)n1 (stereo not drawn) | – | 22.3 µM (inactive) | 19.3 µM (inactive) | 28.3 µM (inactive) | 20.9 µM (inactive) | 21 µM (inactive) | 11.6 µM (inactive) | 19.1 µM (inactive) | 19.1 µM (inactive) | 34.3 µM (inactive) | 26 µM (inactive) | 45.9 µM (inactive) | 16.6 µM (inactive) | 21.6 µM (inactive) | 16.4 µM (inactive) | 24.8 µM (inactive) | 20 µM (inactive) | – | 21.8 µM (inactive) | – |
| CCN(CC)S(=O)(=O)c1ccc2[nH]c(NC(=O)OC)nc2c1 | 7 µM (inactive) | > 100 µM (inactive) | 14 µM (inactive) | – | 35.6 µM (inactive) | 42.6 µM (inactive) | 40.3 µM (inactive) | 12.9 µM (inactive) | > 100 µM (inactive) | > 100 µM (inactive) | 37.3 µM (inactive) | > 100 µM (inactive) | 25.9 µM (inactive) | 64.4 µM (inactive) | 40.9 µM (inactive) | > 100 µM (inactive) | 32.1 µM (inactive) | 30 µM (inactive) | > 100 µM (inactive) | 28.9 µM (inactive) |
| NC(=S)NS(=O)(=O)c1ccc(Cl)cc1Cl | > 100 µM (inactive) | > 100 µM (inactive) | > 100 µM (inactive) | > 100 µM (inactive) | > 100 µM (inactive) | > 100 µM (inactive) | > 100 µM (inactive) | > 100 µM (inactive) | > 100 µM (inactive) | > 100 µM (inactive) | > 100 µM (inactive) | > 100 µM (inactive) | > 100 µM (inactive) | > 100 µM (inactive) | > 100 µM (inactive) | > 100 µM (inactive) | > 100 µM (inactive) | > 100 µM (inactive) | > 100 µM (inactive) | – |
| c1ccc2sc(C3(N4CCCCCC4)CCCCC3)cc2c1 | 15.5 µM (inactive) | 17.8 µM (inactive) | – | – | 28.4 µM (inactive) | 23.8 µM (inactive) | 26.2 µM (inactive) | 24.2 µM (inactive) | 20.6 µM (inactive) | 29.4 µM (inactive) | 26.1 µM (inactive) | 25 µM (inactive) | 16.7 µM (inactive) | 19.1 µM (inactive) | 15.3 µM (inactive) | 20 µM (inactive) | 16.7 µM (inactive) | 23.4 µM (inactive) | – | – |
| COC1=CC2C(c3cc4ccccc4n3S(=O)(=O)c3ccccc3)CC1CN2C(=O)OCc1ccccc1 (stereo not drawn) | 36.5 µM (inactive) | 18.2 µM (inactive) | 17.2 µM (inactive) | 29.3 µM (inactive) | 26.1 µM (inactive) | 1.6 µM (inactive) | 40.4 µM (inactive) | 16.4 µM (inactive) | 32 µM (inactive) | 29.2 µM (inactive) | – | 25 µM (inactive) | 29.4 µM (inactive) | 33.9 µM (inactive) | 23.6 µM (inactive) | 29.7 µM (inactive) | 33.3 µM (inactive) | – | 23.6 µM (inactive) | – |
| Cc1cc(S(N)(=O)=O)c(S/C(=N\Nc2ccc([N+](=O)[O-])cc2)c2ccc(Cl)cc2)cc1Cl | – | 2.64 µM (inactive) | 2.58 µM (inactive) | – | 1.71 µM (inactive) | 1.83 µM (inactive) | 3.18 µM (inactive) | 44.3 µM (inactive) | 3.23 µM (inactive) | 2.19 µM (inactive) | 0.573 µM (active) | 4.65 µM (inactive) | 3.56 µM (inactive) | 2.64 µM (inactive) | 1.87 µM (inactive) | 2.25 µM (inactive) | 3.41 µM (inactive) | 1.96 µM (inactive) | 2.76 µM (inactive) | 2.94 µM (inactive) |
| O=[N+]([O-])/C(C(Cl)=C(Cl)Cl)=C(\N1CCOCC1)n1nnc2ccccc21 | – | 21.1 µM (inactive) | 52.6 µM (inactive) | 17.1 µM (inactive) | 27.2 µM (inactive) | 17.5 µM (inactive) | 18.8 µM (inactive) | – | 19.3 µM (inactive) | 18.1 µM (inactive) | 22.5 µM (inactive) | 19 µM (inactive) | – | 22 µM (inactive) | – | 16.7 µM (inactive) | – | 15.4 µM (inactive) | 22.2 µM (inactive) | – |
